Laboratory results from ChEMBL document CHEMBL1909046, “DrugMatrix in vitro pharmacology data”.

Experiments:
Melanocortin receptor 4 = Melanocortin receptor 4 (Homo sapiens, UniProt P32245); assay type: cell membranes, Membrane; settings: hek293; note: in other assays of this panel Not Active means under 50% inhibition at 10 µM
[1] = biological target: T1, Cholecystokinin receptor type A (Homo sapiens, UniProt P32238); assay type: cell membranes, Membrane; settings: 1321-n1; note: in other assays of this panel Not Active means under 50% inhibition at 10 µM
T1 sequence (P32238 whole entry): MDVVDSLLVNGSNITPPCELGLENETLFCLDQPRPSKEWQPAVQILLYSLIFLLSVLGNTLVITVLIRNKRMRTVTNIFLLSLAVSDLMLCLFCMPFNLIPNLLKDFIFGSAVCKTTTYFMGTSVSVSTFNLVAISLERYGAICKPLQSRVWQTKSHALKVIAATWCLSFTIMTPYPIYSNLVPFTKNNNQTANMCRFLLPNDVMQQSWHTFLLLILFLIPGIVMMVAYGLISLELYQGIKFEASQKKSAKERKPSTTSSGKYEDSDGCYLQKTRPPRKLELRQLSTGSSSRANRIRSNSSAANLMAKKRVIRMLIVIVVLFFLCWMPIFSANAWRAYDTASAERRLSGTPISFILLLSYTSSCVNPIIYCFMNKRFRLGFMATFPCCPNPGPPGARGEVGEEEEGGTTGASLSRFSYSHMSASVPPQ

[2] = biological target: T2, Muscarinic acetylcholine receptor M4 (Homo sapiens, UniProt P08173); assay type: cell membranes, CHO-K1, Membrane; note: in other assays of this panel Not Active means under 50% inhibition at 10 µM
T2 sequence (P08173 whole entry): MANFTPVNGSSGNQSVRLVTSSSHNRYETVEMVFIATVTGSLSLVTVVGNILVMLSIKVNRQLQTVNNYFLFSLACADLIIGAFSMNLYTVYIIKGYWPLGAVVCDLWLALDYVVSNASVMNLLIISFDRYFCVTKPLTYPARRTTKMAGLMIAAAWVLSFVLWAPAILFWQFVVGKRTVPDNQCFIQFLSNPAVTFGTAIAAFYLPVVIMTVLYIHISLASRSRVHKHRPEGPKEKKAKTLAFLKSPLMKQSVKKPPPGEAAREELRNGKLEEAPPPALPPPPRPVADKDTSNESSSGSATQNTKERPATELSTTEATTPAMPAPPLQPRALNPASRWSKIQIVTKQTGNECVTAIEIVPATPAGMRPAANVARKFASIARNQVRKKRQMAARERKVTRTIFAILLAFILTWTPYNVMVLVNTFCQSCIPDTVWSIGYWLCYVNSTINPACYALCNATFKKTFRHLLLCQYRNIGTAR

[3] = DRUGMATRIX: Serotonin (5-Hydroxytryptamine) 5-HT3 radioligand binding (ligand: [3H] GR-65630); assay type: cell membranes, Membrane; settings: hek293; Not Active = under 50% inhibition at 10 µM
[4] = DRUGMATRIX: Phosphodiesterase PDE4 enzyme inhibition (substrate: [3H]cAMP + cAMP); settings: u-937, Not Active = under 50% inhibition at 10 µM
[5] = DRUGMATRIX: Glutamate, Kainate radioligand binding (ligand: [3H] Kainic acid); assay type: cell membranes, Rattus norvegicus, Wistar, Brain, Membrane; settings: Not Active = under 50% inhibition at 10 µM
[6] = biological target: 5-hydroxytryptamine receptor 6 (Homo sapiens, UniProt P50406); assay type: cell membranes, HeLa, Membrane; settings: hela; note: in other assays of this panel Not Active means under 50% inhibition at 10 µM
Chain of 5-hydroxytryptamine receptor 6 (P50406 whole entry): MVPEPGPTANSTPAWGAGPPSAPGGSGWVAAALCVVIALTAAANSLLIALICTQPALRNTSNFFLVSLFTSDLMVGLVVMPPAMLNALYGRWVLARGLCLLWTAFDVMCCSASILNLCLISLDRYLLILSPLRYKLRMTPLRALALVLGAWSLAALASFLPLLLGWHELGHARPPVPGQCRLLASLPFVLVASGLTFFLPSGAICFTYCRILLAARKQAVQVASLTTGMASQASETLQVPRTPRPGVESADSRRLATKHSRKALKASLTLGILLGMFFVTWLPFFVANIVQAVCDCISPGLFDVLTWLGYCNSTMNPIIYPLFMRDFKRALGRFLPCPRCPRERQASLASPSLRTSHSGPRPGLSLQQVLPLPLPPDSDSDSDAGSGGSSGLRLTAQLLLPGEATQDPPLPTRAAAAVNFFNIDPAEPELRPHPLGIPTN

Chain of Melanocortin receptor 4 (P32245 whole entry): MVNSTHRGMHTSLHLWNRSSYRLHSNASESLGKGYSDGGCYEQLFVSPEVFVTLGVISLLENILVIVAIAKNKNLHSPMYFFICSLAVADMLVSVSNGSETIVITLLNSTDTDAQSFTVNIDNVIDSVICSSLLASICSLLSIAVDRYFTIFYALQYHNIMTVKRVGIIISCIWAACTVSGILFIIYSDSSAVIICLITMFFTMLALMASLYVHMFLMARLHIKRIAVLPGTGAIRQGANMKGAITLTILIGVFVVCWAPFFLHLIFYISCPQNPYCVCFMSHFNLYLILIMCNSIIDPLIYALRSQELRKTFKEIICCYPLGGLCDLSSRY

| SMILES | IC50 (Melanocortin receptor 4) | IC50 [1] | IC50 ([2]; cho-k1) | IC50 [3] | Ki [3] | IC50 ([4]; read-out: IC50) [µM] | IC50 [5] | Ki [5] | IC50 [6] | IC50 [4] | Ki [4] | IC50 ([2]; read-out: IC50) [µM] | Ki ([2]; read-out: Ki) [µM] |
| --- | --- | --- | --- | --- | --- | --- | --- | --- | --- | --- | --- | --- | --- |
| CN(CCOc1ccc(C[C@H](Nc2ccccc2C(=O)c2ccccc2)C(=O)O)cc1)c1ccccn1 | Not Active | Not Active | Not Active | Not Active | Not Active | 7.45 | Not Active | Not Active | Not Active |  |  |  |  |
| Nc1nc(F)nc2c1ncn2[C@@H]1O[C@H](CO)[C@@H](O)[C@@H]1O [FLUDARABINE] | Not Active | Not Active | Not Active | Not Active | Not Active |  | Not Active | Not Active | Not Active | Not Active | Not Active |  |  |
| OC[C@H]1OC2C3[C@@H](CO)OC(O[C@H]4[C@H](O)[C@@H](O)[C@@H](O[C@H]5[C@H](O)[C@@H](O)[C@@H](O[C@H]6[C@H](O)[C@@H](O)[C@@H](O[C@H]7[C@H](O)[C@@H](O)[C@@H](O[C@H]8[C@H](O)[C@@H](O)[C@@H](O[C@H]9[C@H](O)[C@@H](O)C(OC1[C@H](O)[C@H]2O)O[C@@H]9CO)O[C@@H]8CO)O[C@@H]7CO)O[C@@H]6CO)O[C@@H]5CO)O[C@@H]4CO)[C@H](O)[C@H]3O | Not Active | Not Active | Not Active | Not Active | Not Active |  | Not Active | Not Active | Not Active | Not Active | Not Active |  |  |
| C=CCO [ALLYL ALCOHOL] | Not Active | Not Active | Not Active | Not Active | Not Active |  | Not Active | Not Active | Not Active | Not Active | Not Active |  |  |
| C[C@]12CC[C@@H](O)C[C@@H]1CC[C@@H]1[C@@H]2CC[C@]2(C)C(=O)CC[C@@H]12 [ANDROSTERONE] | Not Active | Not Active | Not Active | Not Active | Not Active |  | Not Active | Not Active | Not Active | Not Active | Not Active |  |  |
| COC(=O)Nc1nc2ccc(Sc3ccccc3)cc2[nH]1 [FENBENDAZOLE] | Not Active | Not Active | Not Active | Not Active | Not Active |  | Not Active | Not Active | Not Active | Not Active | Not Active |  |  |
| C#C[C@]1(O)CC[C@H]2[C@@H]3CCC4=CC(=O)CC[C@@H]4[C@H]3CC[C@@]21C [NORETHINDRONE] | Not Active | Not Active | Not Active | Not Active | Not Active |  | Not Active | Not Active | Not Active | Not Active | Not Active |  |  |
| O=C(Nc1ccc(Cl)c(Cl)c1)c1cc(Cl)cc(Cl)c1O [3,3',4',5-TETRACHLOROSALICYLANILIDE] | Not Active | Not Active | Not Active | Not Active | Not Active |  | Not Active | Not Active | Not Active | Not Active | Not Active |  |  |
| CCN(CCO)CCCC(C)Nc1ccnc2cc(Cl)ccc12 (stereo not given) [HYDROXYCHLOROQUINE] | Not Active | Not Active | Not Active | Not Active | Not Active |  | Not Active | Not Active | Not Active | Not Active | Not Active |  |  |
| CC1(COc2ccc(CC3SC(=O)NC3=O)cc2)CCCCC1 (stereo not given) [CIGLITAZONE] | Not Active | Not Active |  | Not Active | Not Active |  | Not Active | Not Active | Not Active | Not Active | Not Active | 16.2 | 2.26 |
